The text below walks through data of paper PMC9837764 (Nature Communications, 2023).

Where “and” joins values, the source holds several entries; their conditions need not be identical. Equal entries are not always repeated.

The subject of series [1] is SARS-CoV-2. The series is described as follows: Cell-associated virus RNA in SARS-CoV-2-infected human primary monocytes. The series is classed as cell-based. To be noted: for Cell-associated virus RNA loads, inhibition (Fig1C source data, per donor): monocytes. As for the experimental part: Human primary monocytes were obtained after 3 h of plastic adherence of peripheral blood mononuclear cells (PBMCs). The use of primary human cell was approved by Institutional Review Board from the Oswaldo Cruz Foundation under protocol 49971421.8.0000.5248 with signed informed consent in accordance with the Hemotherapy Service of Hospital Clementino Fraga from the Federal University of Rio de Janeiro. All volunteers were de-identified. PBMCs were isolated from healthy donors by density gradient centrifugation (Ficoll-Paque, GE Healthcare). PBMCs (2.0 × 10^6 cells) were plated onto 48-well plates (NalgeNunc) in RPMI-1640 without serum for 2–4 h. Nonadherent cells were removed, and the remaining monocytes were maintained in DMEM with 5% human serum (HS; Millipore) and penicillin/streptomycin. The purity of human monocytes was above 95%, as determined by flow cytometric analysis (FACScan; Becton Dickinson) using anti-CD3 (BD Biosciences, cat # 555342, 1:40), anti-CD16 (Southern Biotech, cat # 561313, 1:20) and APC mouse IgG2a isotype (BD Biosciences, cat # 550882, 1/40) and PE mouse IgG1 isotype (BD Biosciences, 555749, 1/20).
Total viral RNA from a culture supernatant and/or monolayers was extracted using QIAamp Viral RNA (Qiagen®) according to the manufacturer’s instructions. Quantitative RT‒PCR was performed using GoTaq® Probe qPCR and RT-qPCR Systems (Promega) in a StepOne™ Real-Time PCR System (Thermo Fisher Scientific) ABI PRISM 7500 Sequence Detection System (Applied Biosystems). Amplifications were carried out in 25 µL reaction mixtures containing 2× reaction mix buffer, […] of each primer, 10 µM of probe, and 5 µL of RNA template. Primers, probes, and cycling conditions recommended by the Centers for Disease Control and Prevention (CDC) protocol were used to detect SARS-CoV-2[52]. The standard curve method was employed for virus quantification. For reference to the cell amounts used, the housekeeping gene RNAse P (F-5′-[…] -3′, R-5′[…] -3′, P-5′-FAM-[…] -BHQ-1-3′) was amplified. The Ct values for this target were compared to those obtained for different cell amounts, 10^7 to 10^2, for calibration.

Series [2] concerns SARS-CoV-2. The series is described as follows: Genomic and subgenomic viral RNA in infected Calu-3 cells (RT-PCR). Format: cell-based. Particulars: Calu-3, 10 µM, 48 h.
The test system of series [3] is SARS-CoV-2 gamma VoC. Set-up: species or system K18-hACE2 mice (Mus musculus). To be noted: mouse, in vivo.
For series [4], the system named is SARS-CoV-2 gamma VoC. Also noted: species or system K18-hACE2 mice (Mus musculus). To be noted: mouse, in vivo. The source holds these as a separate data set.
For series [5] the following is noted: male, Sprague-Dawley, rat, in vivo, 250 mg/kg.

As for `c1coc(CNc2ncnc3[nH]cnc23)c1` [MB-905, N6-furfurylaminopurine], in series [1] (Fig. 1c), the “Cell-associated virus RNA levels in SARS-CoV-2-infected monocytes” value is given as “reduced cell-associated virus RNA levels in a concentration-dependent manner”. Besides, the “Cell-associated virus RNA loads, inhibition (Fig1C source data, per donor)” value was 41 and 30 and 63 and 20 and 2 (2×) in series [1] (24 h, Drug 1); 93 and 42 and 46 and 13 and 6 and 12 in series [1] (24 h, Drug 10); 2 (3×) and 5 and 3 and 1 in series [1] (MOI 0.1, 24 h, Drug 0.1). The “Genomic viral RNA (Fig2B source data, replicates)” value in series [2] was 0.2 and 0.15 and 0.1. For the same molecule, the “Subgenomic viral RNA (Fig2B source data, replicates)” value in series [2] is 0.6 and 0.5 and 0.7. Besides, the “survival event code per animal (Fig5D)” value in series [3] is 1 (4×) and 0 (2×). The Body weight entry in series [3] (140 mg/kg/day) is “recovered their body weight”. Also, the Survival entry in series [3] (140 mg/kg/day) is given as “survived after two weeks”. Also, in series [4], the “SARS-CoV-2-induced inflammation in the BAL fluid” value is recorded as “attenuated”. Also, the Tolerability result in series [5] was “tolerated MB-905 well”.
